# Measured values as given in the NIST ThermoML archive (doi:10.1021/je050527x).
# Numbers after ± are expanded uncertainties.
# Assays:
# [1] = refractive index (Na D-line) (dimensionless); conditions: 293.1 K; 101.33 kPa; Liquid; Standard Abbe refractometry
# [2] = Liquid; for mass density: 101.33 kPa; for Normal boiling temperature: Fischer boiling-point apparatus
Compound,refractive index [1],mass density ([2]; 293.1 K) [kg/m3],Normal boiling temperature [2] [°C],mass density ([2]; 298.1 K) [kg/m3]
CCCC#N [butanenitrile],1.384 ± 0.0011,793.7 ± 1.1,117.40 ± 0.2,–
CC(=O)OCc1ccccc1 [benzyl ethanoate],1.5235 ± 0.0011,1055.2 ± 0.9,213.10 ± 0.2,–
CC(=O)CC(C)C [4-methylpentan-2-one],1.3959 ± 0.0011,–,116.30 ± 0.2,796.2 ± 1.1
CC(=O)O [acetic acid],1.3721 ± 0.0011,–,117.70 ± 0.2,1044.3 ± 0.5
CCC(=O)O [propanoic acid],1.3811 ± 0.0011,–,140.90 ± 0.2,988 ± 0.5
